We go through four compounds from ChEMBL document CHEMBL1201862, “PubChem BioAssay data set” (2004).

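How tested: cells in 96-well plates exposed to compound for 48 hours at five concentrations. Here, GI50 denotes the concentration required for 50% inhibition of growth.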 Activity calls are given as the source filed them. No stated cut-off is given here; in the data, active = GI50 up to about 1.1 µM and inactive = higher.

What all share (assay): inhibition of tumour cell growth, NCI panel, 48 h
The test system of test [1] is A549.
For test [2], the system named is UO-31.
In test [3] the test system is HL-60.
Test [4] relates to IGROV-1.
In test [5] the test system is SK-OV-3.
Test [6] relates to HT-29.
Test [7] relates to DU-145.
In test [8] the test system is RXF 393.
Test [9] has as its system UACC-257.
Test [10] concerns OVCAR-4.
Test [11] deals with SW-620.
Test [12] has as its system COLO 205.
Test [13] has as its system MCF7.
In test [14] the test system is OVCAR-3.
Test [15] deals with PC-3.
Test [16] has as its system SF-295.
Test [17] deals with A498.
The subject of test [18] is NCI-H460.
Test [19] concerns Hs-578T.
For test [20], the system named is SNB-19.

On to `COc1ncnc2c(NC3OC(CO)C(O)C3O)ncnc12` (stereo not given), for which the GI50 in test [1] is 0.131 µM (active); in [2] it was 0.984 µM (active); in test [3] it was 0.0414 µM (active); in [4], 0.28 µM (active); in test [5], 0.525 µM (active); in test [6], 0.0685 µM (active). Besides, the GI50 was 0.407 µM (active) in [7]; 0.794 µM (active) in test [8]; 1.6 µM (inactive) in test [9]; 0.713 µM (active) in [10]; 0.238 µM (active) in test [11]; 0.307 µM (active) in [12]. In addition, the GI50 is 0.041 µM (active) in [13]; 0.733 µM (active) in [14]; 0.493 µM (active) in [15]; 0.579 µM (active) in test [16]; 0.411 µM (active) in test [17]; 0.279 µM (active) in test [18]. Further, the GI50 is 1.03 µM (active) in [19] and 1.16 µM (inactive) in [20].

Consider `COc1ccc(C(C)NNC(=O)c2ccncc2)cc1F` (stereo not given), for which the GI50 in [1], in [2], in test [3], in test [4], in test [5] and in test [6] was > 100 µM (inactive) in each case. The GI50 in test [7], in test [8], in test [9], in [10], in [11] and in test [12] was > 100 µM (inactive) throughout. Further, the GI50 in test [13], in test [14], in test [15], in test [16], in test [17] and in [18] was > 100 µM (inactive) in each case. Moreover, the GI50 in test [19] and in [20] was > 100 µM (inactive) each time.

With `CC1(C)N=C(N)N=C(N)N1c1cccc(CSc2ccccc2)c1`, the GI50 is 0.0301 µM (active) in [1]; > 100 µM (inactive) in [2]; < 0.01 µM (active) in test [3]; 0.0301 µM (active) in test [4]; 95.3 µM (inactive) in test [5]; 0.0791 µM (active) in [6]. Further, the GI50 in [7] was 0.592 µM (active); in test [8], 0.169 µM (active); in test [9] it was 3.85 µM (inactive); in [10] it was 2.29 µM (inactive); in test [11] it was 7.59 µM (inactive); in test [12], 0.794 µM (active). Besides, the GI50 in test [13] was 0.597 µM (active); in [14], 0.991 µM (active); in test [15] it was 3.73 µM (inactive); in test [16], 1.1 µM (active); in test [17] it was > 100 µM (inactive); in test [18], 0.0404 µM (active). In addition, the GI50 is 2.83 µM (inactive) in test [19] and 0.218 µM (active) in test [20].

As to `CN(C)c1cccc2c1C(=O)C=CC21c2ccc(N(C)C)c3c(N(C)C)ccc(c23)C(c2ccccc2)C1c1ccccc1` (stereo not given), the GI50 was 27.5 µM (inactive) in [1]; 4.8 µM (inactive) in test [2]; 3.34 µM (inactive) in test [3]; 12 µM (inactive) in test [4]; 11.4 µM (inactive) in test [5]; 14.9 µM (inactive) in test [6]. Further, the GI50 in [7] is 42.5 µM (inactive); in [8], 13 µM (inactive); in test [9] it was 12.6 µM (inactive); in test [10], 3.85 µM (inactive); in test [11] it was 19.8 µM (inactive); in test [12], 11.3 µM (inactive). Besides, the GI50 in [13] is 17.9 µM (inactive); in test [14], 12.6 µM (inactive); in test [15], 9.71 µM (inactive); in test [16], 14.5 µM (inactive); in test [17] it was 6.68 µM (inactive); in [18], 24 µM (inactive). Moreover, the figures for the GI50 in test [19] and in test [20] were 10 µM (inactive) and 16.3 µM (inactive), respectively.
